In ChEMBL document CHEMBL3430912, “GSK Tres Cantos Anti-Kinetoplastid Screening (TCAKS) Data”:

Assays:
[1] = test system: Trypanosoma cruzi; test: GSK_TCAKS: pIC50 Trypanosoma cruzi viability assay using beta-GAL activity. This assay was run at single shot at 5uM compound concentration per well. The biological reagents consisted of NIH-3T3 host cells and trypomastigotes parasitic cells; both cell types were set to a 3.3 * 10^5 cells/mL dilution in assay DMEM by means of a CASY cell counter device using a 60um capillary. 6 uL of the mixture were dispensed per well (about 1 * 10^3 host-cells and 1 * 10^3 parasites) with a Multidrop Combi dispenser. […] In all wells, the percentage of DMSO never exceeded 0.5%. Plates incubated for four days at 37C, 5% CO2. The substrate used for the assay fluorescence intensity (FLINT) readout was resorufin-beta-D-galactopiranoside (Sigma-Aldrich) at 5uM per well. It was diluted in PBS supplemented with the soft detergent Igepal (Fluka).; assay type: functional, organism-based, Mus musculus; conditions: Tulahuen, NIH3T3
[2] = test system: Trypanosoma cruzi; test: (§1) GSK_TCAKS: pIC50 Trypanosoma cruzi Imaging: Infected Cells. […] Cells were then washed once with PBS before infection. T. cruzi trypomastigotes, collected at days 5 to 8 after infection from LLC-MK2 parasite infected cultures, were allowed to swim out for 4h at 37C from a centrifuged pellet (2,500 rpm/10 min/room temperature). Trypomastigotes were then collected and counted in a CASY Cell Counter. Trypomastigotes, in supplemented DMEM, were added to H9c2 cultures in a multiplicity of infection of 1 and incubated for 18 h. Cells were washed once with PBS before incubation of the infected H9c2 monolayer with trypsin (Life-Technologies) to detach cells from the flask. Cells were counted in a CASY Cell Counter using a 150 um capillary and their density set at 5 * 10^4 cells per mL in supplemented assay DMEM. Infected H9c2 were dispensed into 384-well poly-lysine coated assay plates at 50uL per well using a Multidrop Combi dispenser. After seeding them, the plates were incubated at 37C, 5% CO2 for 72h. Cultures were then fixed and stained by addition of 50 uL of a solution containing 8% formaldehyde and 4 uM DRAQ5 DNA dye (BioStatus, UK) per well. […] Five images were collected per well for reliable statistical analysis. Automated image analysis was performed with a script developed on Acapella High Content Imaging and Analysis Software (PerkinElmer). Output: percentage of infected cells per well as a second infection marker.; assay type: functional, organism-based, Rattus norvegicus; conditions: H9c2, 4 h
[3] = test system: Trypanosoma cruzi; test: GSK_TCAKS: pIC50 Trypanosoma cruzi Imaging: Amastigotes/Cell. […] Cells were then washed once with PBS before infection. T. cruzi trypomastigotes, collected at days 5 to 8 after infection from LLC-MK2 parasite infected cultures, were allowed to swim out for 4h at 37C from a centrifuged pellet (2,500 rpm/10 min/room temperature). Trypomastigotes were then collected and counted in a CASY Cell Counter. Trypomastigotes, in supplemented DMEM, were added to H9c2 cultures in a multiplicity of infection of 1 and incubated for 18 h. Cells were washed once with PBS before incubation of the infected H9c2 monolayer with trypsin (Life-Technologies) to detach cells from the flask. Cells were counted in a CASY Cell Counter using a 150 um capillary and their density set at 5 * 10^4 cells per mL in supplemented assay DMEM. Infected H9c2 were dispensed into 384-well poly-lysine coated assay plates at 50uL per well using a Multidrop Combi dispenser. After seeding them, the plates were incubated at 37C, 5% CO2 for 72h. Cultures were then fixed and stained by addition of 50 uL of a solution containing 8% formaldehyde and 4 uM DRAQ5 DNA dye (BioStatus, UK) per well. […] Five images were collected per well for reliable statistical analysis. Automated image analysis was performed with a script developed on Acapella High Content Imaging and Analysis Software (PerkinElmer). Output: number of amastigotes per cell as infection level measurement.; assay type: functional, organism-based, Rattus norvegicus; conditions: H9c2, 4 h
[4] = test system: Trypanosoma cruzi; test: as §1, with “H2C9” for “Trypanosoma cruzi”, “H9c2 Host Cardiomyocytes.” for “Infected Cells.”, “Number” for “percentage”, “H9c2 Host Cardiomyocytes nuclei to determine drug-related cytotoxicity.” for “infected cells per well as a second infection marker.”; assay type: functional, organism-based, Rattus norvegicus; conditions: H9c2, 4 h
[5] = test system: Leishmania donovani; test: GSK_TCAKS: pIC50 Leishmania donovani viability assay using fluorescence intensity. Assay plates (1536-well) were prepared by adding 30nL per well of compound. For single shot assay, the final compound concentration was 5uM. […] Briefly, eGFP LdBOB axenic amastigotes were harvested, fixed and counted in a CASY cell counter (Roche-Applied Science). A final concentration of 1.5 * 10^5 cells per well were prepared in amastigote media containing 500 U/mL penicillin/streptomycin (Invitrogen) and 6uL was dispensed to each experimental well using a Multidrop Combi dispenser (Thermo Scientific). 6uL of assay media was dispensed to control columns used as reference for 100% compound response. Following incubation for 72 h at 37C, 5% CO2, 2 uL of resazurin was added to each well at a final concentration of 0.5 mM in phosphate buffered saline (PBS) with IGEPAL (Sigma-Aldrich), 0.05% (v/v).; assay type: functional, organism-based
[6] = test system: Leishmania donovani; test: (§2) GSK_TCAKS: pIC50 Leishmania donovani Imaging: Infected Macrophages. Assay plates (384-well) were prepared by adding 250nL of compound to each well. For single shot assay, the final compound concentration was 5 uM. […] Automated image analysis was performed with a script developed on Acapella High Content Imaging and Analysis Software (PerkinElmer). Output: Percent of infected macrophage cells were reported for each well.; assay type: functional, organism-based, Homo sapiens; conditions: THP-1
[7] = test system: Leishmania donovani; test: as §2, with “Amastigotes/Macrophages.” for “Infected Macrophages.”, “Average number” for “Percent”, “amastigotes per” for “infected”, “cell” for “cells”; assay type: functional, organism-based, Homo sapiens; conditions: THP-1
[8] = test system: Leishmania donovani; test: as §2, with “THP-1 Host” for “Infected”, “THP-1 cell count” for “Percent of infected macrophage cells”; assay type: functional, organism-based, Homo sapiens
[9] = test system: Trypanosoma brucei brucei; test: GSK_TCAKS: pIC50 Trypanosoma brucei viability assay using fluorescence intensity. Assay plates (1536-well) were prepared by dispensing 25nL of compound solution per well using an Echo acoustic dispenser (Labcyte).; assay type: functional, organism-based; conditions: Lister 427, 2 h
[10] = test system: Trypanosoma brucei brucei; test: GSK_TCAKS: pIC50 Trypanosoma brucei viability assay using luminiscence. Assay plates (1536-well) were prepared. T. brucei cultures were harvested and counted in a CASY cell counter. A parasite suspension was prepared at a final concentration of 5 * 10^4 cells/mL in complete HMI9 medium and 6uL was dispensed to all wells containing compounds using a Multidrop Combi dispenser. 6uL of HMI9 media with 0.4% DMSO were dispensed to control columns. Plates were incubated for 24 h at 37C, 5% CO2 then tempered for 10 min at room temperature. ATP content was quantified by adding 4 uL of CellTiter-Glo Reagent (Promega) according to the manufacturer's instructions. Luminescence was measured using a ViewLux.; assay type: functional, organism-based; conditions: Lister 427, CASY
[11] = GSK_TCAKS: pIC50 HepG2 human cell line viability assay using luminiscence. […] Seeding density was checked to ensure that new mono-layers were not more than 50% confluent at the time of harvesting. Cell suspension was added to 500 mL of the same medium at a final density of 1.2 * 10^5 cells/mL. This cell suspension was dispensed (25 uL, 3000 cells per well) into 384-well clear-bottom plates using a Multidrop Combi dispenser. Prior to addition of the cell suspension, the screening compounds (250 nL) were pre-dispensed into the plates with an Echo liquid handler. Plates were incubated for 48 h at 37C, 5% CO2. After incubation, plates equilibrated at room temperature for 30 min before proceeding to develop the luminescent signal. The signal developer, CellTiter-Glo Reagent, was allowed to equilibrate at room temperature for 30 min and added to the plates (25uL per well) using a Multidrop Combi dispenser. Plates were left for 10 min at room temperature for stabilization and then read using a ViewLux.; assay type: toxicity, cell-based
[12] = molecular target: Sterol 14-alpha demethylase (Trypanosoma cruzi (strain CL Brener), UniProt Q7Z1V1); test: GSK_TCAKS: pIC50 CYP51 from Trypanosoma cruzi.; assay type: functional
Sterol 14-alpha demethylase, sequence (Q7Z1V1 whole entry): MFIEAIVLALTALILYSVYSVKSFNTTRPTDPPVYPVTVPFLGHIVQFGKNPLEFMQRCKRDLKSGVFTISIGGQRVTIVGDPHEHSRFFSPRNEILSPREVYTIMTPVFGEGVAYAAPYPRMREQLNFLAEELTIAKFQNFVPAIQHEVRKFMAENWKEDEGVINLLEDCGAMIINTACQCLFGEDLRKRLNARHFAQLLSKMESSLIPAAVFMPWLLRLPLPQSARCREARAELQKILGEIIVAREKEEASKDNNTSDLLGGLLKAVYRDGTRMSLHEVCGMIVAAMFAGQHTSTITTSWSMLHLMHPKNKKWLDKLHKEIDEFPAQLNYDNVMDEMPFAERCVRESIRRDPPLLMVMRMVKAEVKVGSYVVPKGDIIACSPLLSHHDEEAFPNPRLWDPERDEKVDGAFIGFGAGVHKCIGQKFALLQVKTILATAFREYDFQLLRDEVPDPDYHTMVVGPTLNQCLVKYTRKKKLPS

SMILES	IC50 [1]	IC50 [2]	IC50 [3]	IC50 [4]	IC50 [5]	IC50 [6]	IC50 [7]	IC50 [8]	IC50 [9]	IC50 [10]	IC50 at 48 h [11]	IC50 [12]
COc1cnc2ccc(=O)n(CCN3CCC(NC(=O)Cc4ccc(Cl)c(Cl)c4)CC3)c2c1	0.316 µM	0.398 µM	0.158 µM	6.31 µM	5.01 µM	39.8 µM	5.01 µM	25.1 µM	0.251 µM	0.501 µM	63.1 µM	0.794 µM
O=C(CN1CCN(c2ccccn2)CC1)Nc1cc(S(=O)(=O)N2CCCCCC2)ccc1Cl	10 µM	7.94 µM	6.31 µM	> 50.1 µM	7.94 µM	6.31 µM	1.26 µM	50.1 µM	12.6 µM	25.1 µM	> 100 µM	3.16 µM
CC(C)COC(=O)Nc1ccc(N2CCC(CNS(=O)(=O)c3ccccc3)CC2)c(F)c1	10 µM	7.94 µM	7.94 µM	> 79.4 µM	3.98 µM	2 µM	1.26 µM	> 50.1 µM	2.51 µM	20 µM	> 100 µM	2 µM
Cn1c(CC(=O)NNC(=O)c2ccc3ccccc3n2)nc2ccccc21	3.16 µM	5.01 µM	6.31 µM	> 50.1 µM	6.31 µM	1.26 µM	0.794 µM	> 50.1 µM	7.94 µM	6.31 µM	> 100 µM	31.6 µM
O=C(NNC(=O)c1ccccn1)c1ccc(-c2ccccc2)cc1	1.58 µM	1.58 µM	1.26 µM	2 µM	3.16 µM	6.31 µM	3.16 µM	3.16 µM	0.316 µM	0.631 µM	> 100 µM	31.6 µM
COc1ccc(C(=O)Nc2ccc(NC(=O)CO)cc2)cc1	> 50.1 µM	> 50.1 µM	> 50.1 µM	> 50.1 µM	> 50.1 µM	> 50.1 µM	> 50.1 µM	20 µM	0.251 µM	0.251 µM	> 100 µM	> 100 µM
CN(C)S(=O)(=O)c1ccc(Cl)c(C(=O)Nc2nc(-c3ccccn3)cs2)c1	1.58 µM	2 µM	1.26 µM	6.31 µM	2 µM	10 µM	5.01 µM	6.31 µM	0.501 µM	0.398 µM	> 100 µM	31.6 µM
Cc1nc(C(=O)Nc2ccc3c(c2)OCO3)nn1-c1ccc(Cl)cc1	6.31 µM	1.58 µM	1 µM	> 50.1 µM	2.51 µM	2 µM	1.58 µM	12.6 µM	> 39.8 µM	> 39.8 µM	> 100 µM	31.6 µM
Cc1noc(C)c1COc1cccc(C(=O)N=c2[nH]cccc2C)c1	> 50.1 µM	50.1 µM	39.8 µM	2.51 µM	> 50.1 µM	20 µM	10 µM	6.31 µM	0.398 µM	0.794 µM	> 100 µM	50.1 µM
Cc1nc(C(=O)Nc2ccc3c(c2)OCO3)nn1-c1ccc(F)cc1	3.16 µM	1.26 µM	1 µM	> 50.1 µM	2 µM	7.94 µM	2.51 µM	> 50.1 µM	> 39.8 µM	> 39.8 µM	> 100 µM	39.8 µM
COc1cc(OC)cc(C(NS(=O)(=O)c2ccc(Cl)c(C(F)(F)F)c2)c2nccn2C)c1 (centres undefined)	3.98 µM	6.31 µM	3.16 µM	10 µM	10 µM	6.31 µM	5.01 µM	> 50.1 µM	7.94 µM	7.94 µM	> 100 µM	31.6 µM
Cc1ccc(C)c(CN2C(=O)NC3(CCc4ccccc43)C2=O)c1 (centres undefined)	25.1 µM	20 µM	7.94 µM	> 50.1 µM	> 50.1 µM	> 50.1 µM	15.8 µM	> 50.1 µM	0.501 µM	1 µM	> 100 µM	39.8 µM
CCN(CC)c1ccc(S(=O)(=O)N(CC)CC)c2nonc12	25.1 µM	50.1 µM	20 µM	> 50.1 µM	6.31 µM	0.398 µM	0.126 µM	15.8 µM	25.1 µM	25.1 µM	> 100 µM	25.1 µM
COc1ccc(OC)c2c(=O)c(Cc3ccccc3)c(C)[nH]c12	0.224 µM	0.501 µM	0.126 µM	> 50.1 µM	0.398 µM	3.98 µM	2.51 µM	> 50.1 µM	> 39.8 µM	> 39.8 µM	> 100 µM	> 100 µM
CCCn1c(NC(=O)CCn2cc(Br)cn2)nc2ccccc21	5.01 µM	6.31 µM	2.51 µM	25.1 µM	10 µM	10 µM	5.01 µM	> 50.1 µM	7.94 µM	7.94 µM	> 100 µM	10 µM
CCn1c(NC(=O)Cc2ccc(F)cc2)nc2ccccc21	5.01 µM	7.94 µM	3.98 µM	> 50.1 µM	10 µM	10 µM	6.31 µM	> 50.1 µM	3.16 µM	5.01 µM	> 100 µM	25.1 µM
N#Cc1cc(-c2ccnc(Nc3cccc(CN4CCOCC4)c3)n2)ccc1NCCN	7.94 µM	31.6 µM	15.8 µM	7.94 µM	3.98 µM	1.58 µM	0.794 µM	7.94 µM	0.398 µM	1.26 µM	50.1 µM	31.6 µM
